In brackets after ≈: the same amount, converted by molar mass.
Columns and labels:
[1] = tested on: Alcaligenes faecalis A 1; assay: minimum inhibitory concentration, agar dilution assay; type: cell-based; conditions: A1, agar dilution, 35° C., 20 hours, read-out: minimum inhibitory concentration
Outline: (§1)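 Two-fold dilutions of compound in sterile water were mixed into molten brain heart infusion agar at about 60 °C. Plates were inoculated with Trypto-Soy broth cultures (35 °C, 18–20 h) diluted to approximately 10^8 cells/ml. After 20 h at 35 °C, MIC was taken as the lowest concentration showing no growth.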

[2] = tested on: Bacillus subtilis ATCC 6633; assay: as above; type: cell-based; conditions: ATCC6633, agar dilution, 35° C., 20 hours, read-out: minimum inhibitory concentration
Outline: as §1

[3] = tested on: Citrobacter freundii GN 346; assay: as above; type: cell-based; conditions: GN346, agar dilution, 35° C., 20 hours, read-out: minimum inhibitory concentration
Outline: as §1

[4] = tested on: Comamonas terrigena B-996; assay: as above; type: cell-based; conditions: B996, agar dilution, 35° C., 20 hours, read-out: minimum inhibitory concentration
Outline: as §1

[5] = tested on: Enterobacter aerogenes E19; assay: as above; type: cell-based; conditions: Klebsiella aerogenes, E19; agar dilution, 35° C., 20 hours; read-out: minimum inhibitory concentration
Outline: as §1

[6] = tested on: Enterobacter cloacae 45; assay: as above; type: cell-based; conditions: Enterobacter cloacae, 45; agar dilution, 35° C., 20 hours; read-out: minimum inhibitory concentration
Outline: as §1

[7] = tested on: Enterobacter sp. E8; assay: as above; type: cell-based; conditions: SP.E8, agar dilution, 35° C., 20 hours, read-out: minimum inhibitory concentration
Outline: as §1

[8] = tested on: Escherichia coli K-12; assay: as above; type: cell-based; conditions: K12, 20 h, read-out: minimum inhibitory concentration
Outline: as §1

[9] = tested on: Escherichia coli RGN 823; assay: as above; type: cell-based; conditions: RGN823, agar dilution, 35° C., 20 hours, read-out: minimum inhibitory concentration
Outline: as §1

[10] = tested on: Klebsiella pneumoniae K-13; assay: as above; type: cell-based; conditions: K13, agar dilution, 35° C., 20 hours, read-out: minimum inhibitory concentration
Outline: as §1

[11] = tested on: Proteus mirabilis P6; assay: as above; type: cell-based; conditions: P6, agar dilution, 35° C., 20 hours, read-out: minimum inhibitory concentration
Outline: as §1

[12] = tested on: Proteus rettgeri P7; assay: as above; type: cell-based; conditions: Providencia rettgeri, P7; agar dilution, 35° C., 20 hours; read-out: minimum inhibitory concentration
Outline: as §1

[13] = tested on: Proteus sp. P22; assay: as above; type: cell-based; conditions: agar dilution, 35° C., 20 hours; read-out: minimum inhibitory concentration
Outline: as §1

[14] = tested on: Proteus vulgaris GN76; assay: as above; type: cell-based; conditions: GN76, agar dilution, 35° C., 20 hours, read-out: minimum inhibitory concentration
Outline: as §1

[15] = tested on: Providencia sp. P8; assay: as above; type: cell-based; conditions: SP.P8, agar dilution, 35° C., 20 hours, read-out: minimum inhibitory concentration
Outline: as §1

[16] = tested on: Pseudomonas aeruginosa IFO3445; assay: as above; type: cell-based; conditions: IFO3445, agar dilution, 35° C., 20 hours, read-out: minimum inhibitory concentration
Outline: as §1

[17] = tested on: Pseudomonas aeruginosa NCTC10490; assay: as above; type: cell-based; conditions: NCTC10490, agar dilution, 35° C., 20 hours, read-out: minimum inhibitory concentration
Outline: as §1

[18] = tested on: Sarcina lutea; assay: as above; type: cell-based; conditions: Micrococcus luteus; agar dilution, 35° C., 20 hours; read-out: minimum inhibitory concentration
Outline: as §1

[19] = tested on: Serratia marcescens S18; assay: as above; type: cell-based; conditions: S18, agar dilution, 35° C., 20 hours, read-out: minimum inhibitory concentration
Outline: as §1

[20] = tested on: Serratia marcescens T55; assay: as above; type: cell-based; conditions: T55, agar dilution, 35° C., 20 hours, read-out: minimum inhibitory concentration
Outline: as §1

[21] = tested on: Staphylococcus aureus FDA 209P; assay: as above; type: cell-based; conditions: FDA209P, agar dilution, 35° C., 20 hours, read-out: minimum inhibitory concentration
Outline: as §1

[22] = tested on: Staphylococcus aureus Russell; assay: as above; type: cell-based; conditions: agar dilution, 35° C., 20 hours, read-out: minimum inhibitory concentration
Outline: as §1

[23] = tested on: Staphylococcus aureus Smith; assay: as above; type: cell-based; conditions: agar dilution, 35° C., 20 hours, read-out: minimum inhibitory concentration
Outline: as §1

[24] = tested on: Staphylococcus epidermidis; assay: as above; type: cell-based; conditions: agar dilution, 35° C., 20 hours, read-out: minimum inhibitory concentration
Outline: as §1

[25] = tested on: Gram-positive and Gram-negative bacteria; conditions: stated as known; cited from earlier work

## Cc1nnc(SCC2=C(C(=O)O)N3C(=O)[C@@H](NC(=O)Cn4cnnn4)[C@H]3SC2)s1 [CEZ, cephazolin, reference compound]
[1]
  MIC: 3.13 µg/mL (≈ 6.89 µM)
[2]
  MIC: 0.2 µg/mL (≈ 0.44 µM)
[3]
  MIC: > 200 µg/mL
[4]
  MIC: 0.2 µg/mL (≈ 0.44 µM)
[5]
  MIC: > 200 µg/mL
[6]
  MIC: > 200 µg/mL
[7]
  MIC: 3.13 µg/mL (≈ 6.89 µM)
[8]
  MIC: 1.56 µg/mL (≈ 3.43 µM)
[9]
  MIC: 200 µg/mL (≈ 440 µM)
[10]
  MIC: 200 µg/mL (≈ 440 µM)
[11]
  MIC: 6.25 µg/mL (≈ 13.8 µM)
[12]
  MIC: > 200 µg/mL
[13]
  MIC: > 200 µg/mL
[14]
  MIC: > 200 µg/mL
[15]
  MIC: 100 µg/mL (≈ 220 µM)
[16]
  MIC: > 200 µg/mL
[17]
  MIC: > 200 µg/mL
[18]
  MIC: 0.39 µg/mL (≈ 0.858 µM)
[19]
  MIC: > 200 µg/mL
[20]
  MIC: > 200 µg/mL
[21]
  MIC: 0.1 µg/mL (≈ 0.22 µM)
[22]
  MIC: 0.2 µg/mL (≈ 0.44 µM)
[23]
  MIC: 0.2 µg/mL (≈ 0.44 µM)
[24]
  MIC: 0.1 µg/mL (≈ 0.22 µM)
[25]
  effectiveness against Pseudomonas aeruginosa and Serratia, Proteus, Klebsiella, Enterobacter: known to be effective against Pseudomonas aeruginosa and microorganisms of the genus Serratia, Proteus, Klebsiella, and Enterobacter

— patent publication US4337199A, “Antibiotic β-lactam compounds, production thereof, and their use as antimicrobial agent” (Sanraku-Ocean Co., Ltd., priority 1978, dated 1982)
